Laboratory results from patent US7465729B2, “Methods of treatment of menopause and perimenopause using eszopiclone” (Sepracor Inc., priority 2004, dated 2008).

Experiments:
[1] = tested on: women with insomnia secondary to perimenopause or menopause; test: Clinical study: number of nocturnal awakenings due to hot flashes; format: in vivo; details: 3 mg nightly, ITT; for Number of Nocturnal Awakenings due to Hot Flashes, Change from Baseline, Least Squares Means (SE) [3]: ANCOVA; for Number of Nocturnal Awakenings due to Hot Flashes, Observed Value, Least Squares Means (SE) [2]: ANOVA
Protocol: (§1) The study was aimed at observing efficacy of eszopiclone 3 mg compared to placebo in the treatment of insomnia secondary to perimenopause or menopause. The study was a multicenter, randomized, double-blind, placebo-controlled, parallel-group study. […] The primary method of analysis compared the post-randomization results between the two treatment groups.
(§2) Subjects were women with insomnia secondary to perimenopause or menopause. Subjects were perimenopausal or menopausal and had insomnia symptoms including ≧45 minutes sleep latency (SL) and total sleep time (TST) ≦6 hours. Perimenopausal/menopausal symptoms predated the onset of sleep disturbance symptoms. The patient population was predominately Caucasian (77.2%). The mean age was 49, with a range of 40-60.
(§3) A total of 410 subjects were randomized. Among them, 201 received 3 mg of eszopiclone (ESZ) nightly (at bedtime) for four weeks and 209 received matching placebo (PBO).

[2] = tested on: women with insomnia secondary to perimenopause or menopause; test: Clinical study: Physician Global Assessment of perimenopausal or menopausal symptoms; format: in vivo; details: ITT; for Physician Global Assessment, Observed Value, Mean (SD): score 1 = Very much improved to 7 = Very much worse; for Physician Global Assessment, Observed Value, Least Squares Means (SE) [1]: ANOVA
Protocol: as §1, §2, §3
A Physician Global Assessment was administered at Week 4, the end of the double-blind treatment period.

[3] = tested on: women with insomnia secondary to perimenopause or menopause; test: Clinical study: discontinuation rates; format: in vivo; details: 3 mg nightly for four weeks
Protocol: as §1, §2, §3

[4] = tested on: conscious dogs; test: Dose escalation safety study, cardiovascular and respiratory parameters; details: acute intravenous, 3, 5 and 12 mg/kg
Protocol: To establish the safety of eszopiclone, a dose escalation study was carried out. Cardiovascular and respiratory parameters were evaluated in conscious dogs following acute intravenous administration of (R)-, (S)- or racemic zopiclone at three doses (3, 5 and 12 mg/kg).

[5] = tested on: mice; test: Antimuscarinic activity in vivo: oxotremorine induced salivation; details: doses up to 300 mg/kg, p.o.
Protocol: Eszopiclone was evaluated for antimuscarinic activity in vivo.

[6] = tested on: muscarinic receptors; test: In vitro affinity for muscarinic receptors; format: binding

CN1CCN(C(=O)O[C@H]2c3nccnc3C(=O)N2c2ccc(Cl)cn2)CC1 [Eszopiclone, (+)6-(5-chloropyrid-2-yl)-5-(4-methylpiperazin-1-yl)carbonyloxy-7-oxo-6,7-dihydro-5H-pyrrolo[3-4-b]pyrazine]
Number of Nocturnal Awakenings due to Hot Flashes, Change from Baseline, Mean (SD) ([1]; Week 3): −0.7 (1.1) | Number of Nocturnal Awakenings due to Hot Flashes, Change from Baseline, Median ([1]; Week 3): −0.4 | Number of Nocturnal Awakenings due to Hot Flashes, Change from Baseline, Minimum ([1]; Week 3): −6.0 | Number of Nocturnal Awakenings due to Hot Flashes, Observed Value, 25th Percentile ([1]; Week 3): 0.0 | Number of Nocturnal Awakenings due to Hot Flashes, Observed Value, 75th Percentile ([1]; Week 3): 1.0 | Number of Nocturnal Awakenings due to Hot Flashes, Observed Value, Maximum ([1]; Week 3): 3.0 | Number of Nocturnal Awakenings due to Hot Flashes, Observed Value, Mean (SD) ([1]; Week 3): 0.5 (0.7) | Number of Nocturnal Awakenings due to Hot Flashes, Observed Value, Median ([1]; Week 3): 0.0 | Number of Nocturnal Awakenings due to Hot Flashes, Observed Value, Minimum ([1]; Week 3): 0.0 | Number of Nocturnal Awakenings due to Hot Flashes, Change from Baseline, Least Squares Means (SE) [3] ([1]; Week 3): −0.6 (0.1) | Number of Nocturnal Awakenings due to Hot Flashes, Observed Value, Least Squares Means (SE) [2] ([1]; Week 3): 0.5 (0.1) | Number of Nocturnal Awakenings due to Hot Flashes, Change from Baseline, 25th Percentile ([1]; Week 4): −1.3 | Number of Nocturnal Awakenings due to Hot Flashes, Change from Baseline, 75th Percentile ([1]; Week 4): 0.0 | Number of Nocturnal Awakenings due to Hot Flashes, Change from Baseline, Maximum ([1]; Week 4): 2.1 | Number of Nocturnal Awakenings due to Hot Flashes, Change from Baseline, Mean (SD) ([1]; Week 4): −0.8 (1.2) | Number of Nocturnal Awakenings due to Hot Flashes, Change from Baseline, Median ([1]; Week 4): −0.7 | Number of Nocturnal Awakenings due to Hot Flashes, Change from Baseline, Minimum ([1]; Week 4): −6.0 | Number of Nocturnal Awakenings due to Hot Flashes, Observed Value, 25th Percentile ([1]; Week 4): 0.0 | Number of Nocturnal Awakenings due to Hot Flashes, Observed Value, 75th Percentile ([1]; Week 4): 1.0 | Number of Nocturnal Awakenings due to Hot Flashes, Observed Value, Maximum ([1]; Week 4): 3.6 | Number of Nocturnal Awakenings due to Hot Flashes, Observed Value, Mean (SD) ([1]; Week 4): 0.4 (0.7) | Number of Nocturnal Awakenings due to Hot Flashes, Observed Value, Median ([1]; Week 4): 0.0 | Number of Nocturnal Awakenings due to Hot Flashes, Observed Value, Minimum ([1]; Week 4): 0.0 | Number of Nocturnal Awakenings due to Hot Flashes, Change from Baseline, Least Squares Means (SE) [3] ([1]; Week 4): −0.7 (0.1) | Number of Nocturnal Awakenings due to Hot Flashes, Observed Value, Least Squares Means (SE) [2] ([1]; Week 4): 0.4 (0.1) | Physician Global Assessment, Observed Value, 25th Percentile ([2]; Visit 3 (Baseline), 3 mg group): 4.0 | Physician Global Assessment, Observed Value, 75th Percentile ([2]; Visit 3 (Baseline), 3 mg group): 4.0 | Physician Global Assessment, Observed Value, Maximum ([2]; Visit 3 (Baseline), 3 mg group): 7.0 | Physician Global Assessment, Observed Value, Median ([2]; Visit 3 (Baseline), 3 mg group): 4.0 | Physician Global Assessment, Observed Value, Minimum ([2]; Visit 3 (Baseline), 3 mg group): 0.0 | Physician Global Assessment, Observed Value, Mean (SD) ([2]; Visit 3 (Baseline), 3 mg group, 0 = Not assessed): 3.7 (1.0) | Physician Global Assessment, Change from Baseline, 25th Percentile ([2]; Visit 5 (Week 4), 3 mg nightly): −2.0 | Physician Global Assessment, Change from Baseline, 75th Percentile ([2]; Visit 5 (Week 4), 3 mg nightly): 0.0 | Physician Global Assessment, Change from Baseline, Maximum ([2]; Visit 5 (Week 4), 3 mg nightly): 6.0 | Physician Global Assessment, Change from Baseline, Mean (SD) ([2]; Visit 5 (Week 4), 3 mg nightly): −1.0 (1.4) | Physician Global Assessment, Change from Baseline, Median ([2]; Visit 5 (Week 4), 3 mg nightly): −1.0 | Physician Global Assessment, Change from Baseline, Minimum ([2]; Visit 5 (Week 4), 3 mg nightly): −4.0 | Physician Global Assessment, Observed Value, 25th Percentile ([2]; Visit 5 (Week 4), 3 mg nightly): 2.0 | Physician Global Assessment, Observed Value, 75th Percentile ([2]; Visit 5 (Week 4), 3 mg nightly): 4.0 | Physician Global Assessment, Observed Value, Maximum ([2]; Visit 5 (Week 4), 3 mg nightly): 6.0 | Physician Global Assessment, Observed Value, Median ([2]; Visit 5 (Week 4), 3 mg nightly): 2.0 | Physician Global Assessment, Observed Value, Minimum ([2]; Visit 5 (Week 4), 3 mg nightly): 1.0 | Physician Global Assessment, Change from Baseline, Least Squares Means (SE) [2] ([2]; Visit 5 (Week 4), 3 mg nightly, ANCOVA): −0.9 (0.1) | Physician Global Assessment, Observed Value, Least Squares Means (SE) [1] ([2]; Visit 5 (Week 4), 3 mg nightly): 2.7 (0.1) | Physician Global Assessment, Observed Value, Least Squares Means (SE) [1] ([2]; Visit 5 (Week 4), 3 mg nightly, listed as ESZ): 2.7 | Physician Global Assessment, Observed Value, Mean (SD) ([2]; Visit 5 (Week 4), 3 mg nightly): 2.6 (1.2) | discontinuation rate [3]: 11.9% | cardiotoxicity, as evidenced by the electrocardiogram (ECG) [4]: No evidence of cardiotoxicity | effect on blood pressure [4]: dose dependent, transient decreases in blood pressure | effect on heart rate [4]: compensatory increase in heart rate | Blood gases and blood chemistries (pH, pCO2, pO2, hematocrit, and lactate) ([4]; all dose groups): remained unaffected | antagonism of oxotremorine induced salivation [5]: neither (R)-, (S)-, nor racemic zopiclone significantly antagonized oxotremorine induced salivation | in vitro affinity for muscarinic receptors [6]: lack of in vitro affinity
